The record followed here is ChEMBL document CHEMBL1201862, “PubChem BioAssay data set” (2004).

The nature of test [1]: NIH-3T3 fibroblast cytotoxicity, dose response, cytotoxicity control, cell-based, fluorescence, Alamar Blue, secondary assay (AID 2327).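 Note: NIH-3T3 mouse fibroblasts cultured with fluconazole at 8 µg/mL.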 It is filed as functional. For orientation: Resazurin is reduced to fluorescent resorufin, in cell work by metabolically active cells.
Test [2] concerns HEK293. Description: inhibition of NOD1-driven NF-kB reporter – cell-based, luminescence, uHTS, primary screen (AID 1578). The class given is functional. The conditions noted are these: Homo sapiens.
Test [3] concerns HEK293. Description: cells. It is filed as functional, cell-based. Conditions: Homo sapiens.
Test [4] in a line: fluconazole-exposed Candida albicans growth modulators – fluorescence, retest, confirmation (AID 2467). It is filed as functional, cell-based.
Test [5] deals with HEK293. Nature of the test: cells. It is filed as functional, cell-based. Conditions: Homo sapiens. The source holds these as a separate data set.
For test [6], the target named is Nucleotide-binding oligomerization domain-containing protein 2 (Homo sapiens, UniProt Q9HC29). Description: inhibition of NOD2-driven NF-kB reporter – cell-based, luminescence, uHTS, HEK293 (AID 1566). The class given is functional.
Sequence of Nucleotide-binding oligomerization domain-containing protein 2 (Q9HC29 whole entry, the tested form may be a part): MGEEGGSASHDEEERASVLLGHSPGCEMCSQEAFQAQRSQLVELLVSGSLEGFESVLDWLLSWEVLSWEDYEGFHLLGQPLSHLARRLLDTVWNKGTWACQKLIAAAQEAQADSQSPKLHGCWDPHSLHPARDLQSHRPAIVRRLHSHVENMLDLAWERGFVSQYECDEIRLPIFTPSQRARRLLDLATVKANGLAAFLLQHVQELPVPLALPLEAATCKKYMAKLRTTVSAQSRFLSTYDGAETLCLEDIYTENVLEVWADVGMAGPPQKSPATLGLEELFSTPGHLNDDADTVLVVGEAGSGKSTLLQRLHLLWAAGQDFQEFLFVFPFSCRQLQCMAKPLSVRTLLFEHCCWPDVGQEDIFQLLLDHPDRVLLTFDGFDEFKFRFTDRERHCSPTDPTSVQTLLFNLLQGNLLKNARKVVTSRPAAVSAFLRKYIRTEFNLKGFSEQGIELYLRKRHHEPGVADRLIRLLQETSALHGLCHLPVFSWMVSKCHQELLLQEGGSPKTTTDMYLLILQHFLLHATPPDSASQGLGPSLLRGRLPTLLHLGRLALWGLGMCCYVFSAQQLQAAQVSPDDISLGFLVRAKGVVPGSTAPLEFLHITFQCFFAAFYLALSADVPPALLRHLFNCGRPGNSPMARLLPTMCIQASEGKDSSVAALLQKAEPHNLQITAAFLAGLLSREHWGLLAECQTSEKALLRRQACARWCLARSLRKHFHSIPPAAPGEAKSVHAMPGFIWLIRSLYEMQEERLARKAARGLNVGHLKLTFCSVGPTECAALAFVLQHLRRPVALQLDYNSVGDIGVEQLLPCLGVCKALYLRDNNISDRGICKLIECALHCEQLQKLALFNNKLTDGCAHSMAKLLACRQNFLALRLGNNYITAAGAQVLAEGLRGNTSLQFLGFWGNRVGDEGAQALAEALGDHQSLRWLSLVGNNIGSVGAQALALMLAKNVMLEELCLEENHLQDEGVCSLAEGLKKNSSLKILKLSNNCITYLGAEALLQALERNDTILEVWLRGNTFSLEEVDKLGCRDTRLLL
For test [7], the system named is HEK293. Description: NOD2 signaling inhibitors in MDP-stimulated cells, cell-based, uHTS, luminescence (AID 2001). It is filed as functional. The conditions noted are these: Homo sapiens.
Test [8] can be described thus: Trypanosoma cruzi growth suppression in host cells – NIH3T3 host cells, beta-gal luminescence, confirmation (AID 2044).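 Note: intracellular parasites grown in NIH/3T3 mouse fibroblasts as host cells; luminescent beta-galactosidase reporter signal from transgenic T. cruzi replicating inside host cells; inhibitors lower the luminescence signal.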 It is filed as functional, cell-based.
Test [9] has as its system HEK293. Description: cells. The class given is functional, cell-based. The conditions noted are these: Homo sapiens. This is another data set of the same source.
Test [10] is described as follows: microbe, parasite or virus in culture. It is filed as functional. Conditions: Mycobacterium tuberculosis.
A short description of test [11]: NIH3T3 cell viability loss – ATP luminescence, mouse fibroblasts, counter-screen, dose response (AID 2010).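 Note: cells exposed to compound for about 90 hours before reading.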 It is filed as functional, cell-based.
For test [12], the target named is G-protein coupled receptor 55 (Homo sapiens, UniProt Q9Y2T6). Nature of the test: blockers of GPR55 signalling, imaged – imaging, image-based, counter-screen for GPR35 antagonist project, SAR follow-up (AID 2397). It is filed as functional. Background: Counterscreens check selectivity or assay interference.
For test [13], the system named is INS1. Description: INS-1E survival protection against cytokine death – cell-based, luminescence, retest, dose response (AID 449756).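 Note: cell death triggered by IL-1 beta plus TNF-alpha plus IFN-gamma mixture; protective hits raise ATP signal compared with cytokine alone wells.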 The conditions noted are these: Rattus norvegicus. The class given is functional.
In test [14] the target is Luciferin 4-monooxygenase (Photinus pyralis, UniProt P08659). Description: inhibition of purified Photinus pyralis luciferase – biochemical, luminescence, dose response (AID 1891).
Sequence of Luciferin 4-monooxygenase (P08659 whole entry): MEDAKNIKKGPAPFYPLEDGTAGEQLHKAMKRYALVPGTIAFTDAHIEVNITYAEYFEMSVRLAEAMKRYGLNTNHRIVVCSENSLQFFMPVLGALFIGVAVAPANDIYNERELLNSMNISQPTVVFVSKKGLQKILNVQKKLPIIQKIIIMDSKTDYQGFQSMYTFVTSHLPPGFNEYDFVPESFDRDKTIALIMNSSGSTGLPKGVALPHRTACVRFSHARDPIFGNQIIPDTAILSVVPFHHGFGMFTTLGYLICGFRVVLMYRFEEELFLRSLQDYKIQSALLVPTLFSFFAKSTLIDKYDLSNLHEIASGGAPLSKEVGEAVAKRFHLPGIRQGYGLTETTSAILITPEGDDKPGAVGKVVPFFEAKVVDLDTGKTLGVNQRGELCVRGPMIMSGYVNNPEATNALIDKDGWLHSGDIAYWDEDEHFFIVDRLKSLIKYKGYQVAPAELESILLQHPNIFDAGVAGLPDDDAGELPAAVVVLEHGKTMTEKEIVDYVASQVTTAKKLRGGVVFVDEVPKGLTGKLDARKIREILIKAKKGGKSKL
A short description of test [15]: Luminescence Cell-Based Dose Confirmation HTS to Identify Inhibitors of Platelet Dense Granule Release. [Related pubchem assays: 1663 (Primary HTS), 1678 (Summary of Project)]. It is filed as functional.
A short description of test [16]: Luminescence Cell-Based/Microorganism Confirmation at Dose of Inhibitors of Trypanosoma cruzi Infection. [Related pubchem assays: 1885, 1968 ]. The class given is functional.
A short description of test [17]: Luminescence Cell-Based Secondary HTS screen to identify cytotoxic compounds of NIH3T3 cells. [Related pubchem assays: 1885, 1968 ]. The class given is functional.
The nature of test [18]: HepG2 cell cytotoxicity, dose response, cytotoxicity control for non-replicating M. tuberculosis project (AID 489018). It is filed as functional. The conditions noted are these: Mycobacterium tuberculosis.
Test [19] in a line: cells. It is filed as functional.
A short description of test [20]: T. cruzi infection blockers in NIH3T3 cells – beta-gal luminescence, NIH3T3 host cells, confirmation (AID 2630). The class given is functional, cell-based. Conditions: Mus musculus.
The target of test [21] is Lysine-specific demethylase 4A (Homo sapiens, UniProt O75164). Description: inhibition of JMJD2A H3K9me3 demethylation – biochemical, DELFIA europium, cherry-picked samples, selectivity assay for GASC-1 inhibitor project, dose response (AID 488840).
The target of test [22] is Lysine-specific demethylase 4C (Homo sapiens, UniProt Q9H3R0). Description: inhibition of JMJD2C H3K9me3 demethylation – biochemical, DELFIA europium, cherry-picked samples, dose response (AID 488835). It is filed as functional.
In test [23] the target is T1, Mannose-6-phosphate isomerase (Homo sapiens, UniProt P34949).
T1 sequence (P34949 whole entry): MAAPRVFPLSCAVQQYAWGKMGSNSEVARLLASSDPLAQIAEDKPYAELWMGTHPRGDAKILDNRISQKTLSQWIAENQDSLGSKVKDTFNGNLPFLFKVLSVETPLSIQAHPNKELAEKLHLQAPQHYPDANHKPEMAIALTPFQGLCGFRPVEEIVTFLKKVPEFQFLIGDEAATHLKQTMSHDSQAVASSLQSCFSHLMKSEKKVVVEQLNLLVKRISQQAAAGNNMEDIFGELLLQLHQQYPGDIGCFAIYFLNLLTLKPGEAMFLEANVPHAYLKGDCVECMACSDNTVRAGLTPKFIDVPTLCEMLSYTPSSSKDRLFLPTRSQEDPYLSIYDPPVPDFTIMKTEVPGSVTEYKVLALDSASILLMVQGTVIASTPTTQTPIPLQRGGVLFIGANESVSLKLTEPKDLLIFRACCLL
Description: phosphomannose isomerase inhibition – biochemical, fluorescence intensity, confirmation (AID 1535).

Test [24] addresses Glucose-6-phosphate 1-dehydrogenase (Homo sapiens, UniProt P11413). Nature of the test: inhibition of Homo sapiens G6PD, dose series – biochemical, fluorescence, selectivity assay for P. falciparum G6PD inhibitor project, dose response (AID 504792). It is filed as functional.
For test [25], the target named is Phosphomannomutase 2 (Homo sapiens, UniProt O15305). Nature of the test: Counter screen SAR assay for PMM2 inhibitors via a fluorescence intensity assay. [Related pubchem assays (depositor defined):AID1545, AID1574].
Sequence of Phosphomannomutase 2 (O15305 whole entry): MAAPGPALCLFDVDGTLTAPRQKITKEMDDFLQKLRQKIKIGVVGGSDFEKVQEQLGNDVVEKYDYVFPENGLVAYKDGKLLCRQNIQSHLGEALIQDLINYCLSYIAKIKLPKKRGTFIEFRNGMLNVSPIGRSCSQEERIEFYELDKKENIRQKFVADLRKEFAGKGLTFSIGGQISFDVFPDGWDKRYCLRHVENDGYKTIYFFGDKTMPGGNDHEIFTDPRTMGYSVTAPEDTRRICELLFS
Test [26] concerns the target Phosphoethanolamine/phosphocholine phosphatase (Homo sapiens, UniProt Q8TCT1). Description: SAR assay for compounds that inhibit PHOSPHO1. [Related pubchem assays (depositor defined):AID1545, AID1565, AID1574].
Test [27] addresses DNA dC->dU-editing enzyme APOBEC-3G (Homo sapiens, UniProt Q9HC16). Description: Dose Response confirmation of small molecule APOBEC3G DNA Deaminase Inhibitors via a fluorescence-based single-stranded DNA deaminase assay. [Related pubchem assays (depositor defined):AID493012, AID493028]. The class given is functional.
The target of test [28] is SUMO E1/E2 (Homo sapiens, UniProt P63279+Q9UBE0+Q9UBT2). Nature of the test: SAR analysis of SUMOylation using HTRF in an in-Vitro dose response assay. [Related pubchem assays (depositor defined):AID2006, AID2011, AID2018, AID2069, AID2658]. The class given is functional. For orientation: TR-FRET usually uses a lanthanide donor and a delayed reading to cut background.

Test [29] has as its target T2, Voltage-gated N-type calcium channel alpha-1B subunit/Amyloid beta A4 precursor protein-binding family A member 1 (Homo sapiens, UniProt Q00975+Q02410). Description: disruptors of Mint-PDZ/N-type channel peptide interaction – biochemical, HTRF, set 2, SAR follow-up (AID 434980). The class given is functional.
The target in test [30] is T2, Voltage-gated N-type calcium channel alpha-1B subunit/Amyloid beta A4 precursor protein-binding family A member 1. Nature of the test: disruptors of Mint-PDZ/N-type channel peptide interaction – biochemical, HTRF, SAR follow-up (AID 2489). The class given is functional.
Test [31] addresses Tumor necrosis factor (Homo sapiens, UniProt P01375). Nature of the test: analog potency on TNFa NF-kB signaling – cell-based, revised, SAR follow-up (AID 2337). The class given is functional.
In test [32] the target is T3, Nucleotide-binding oligomerization domain-containing protein 1 (Homo sapiens, UniProt Q9Y239).
T3 sequence (Q9Y239 whole entry): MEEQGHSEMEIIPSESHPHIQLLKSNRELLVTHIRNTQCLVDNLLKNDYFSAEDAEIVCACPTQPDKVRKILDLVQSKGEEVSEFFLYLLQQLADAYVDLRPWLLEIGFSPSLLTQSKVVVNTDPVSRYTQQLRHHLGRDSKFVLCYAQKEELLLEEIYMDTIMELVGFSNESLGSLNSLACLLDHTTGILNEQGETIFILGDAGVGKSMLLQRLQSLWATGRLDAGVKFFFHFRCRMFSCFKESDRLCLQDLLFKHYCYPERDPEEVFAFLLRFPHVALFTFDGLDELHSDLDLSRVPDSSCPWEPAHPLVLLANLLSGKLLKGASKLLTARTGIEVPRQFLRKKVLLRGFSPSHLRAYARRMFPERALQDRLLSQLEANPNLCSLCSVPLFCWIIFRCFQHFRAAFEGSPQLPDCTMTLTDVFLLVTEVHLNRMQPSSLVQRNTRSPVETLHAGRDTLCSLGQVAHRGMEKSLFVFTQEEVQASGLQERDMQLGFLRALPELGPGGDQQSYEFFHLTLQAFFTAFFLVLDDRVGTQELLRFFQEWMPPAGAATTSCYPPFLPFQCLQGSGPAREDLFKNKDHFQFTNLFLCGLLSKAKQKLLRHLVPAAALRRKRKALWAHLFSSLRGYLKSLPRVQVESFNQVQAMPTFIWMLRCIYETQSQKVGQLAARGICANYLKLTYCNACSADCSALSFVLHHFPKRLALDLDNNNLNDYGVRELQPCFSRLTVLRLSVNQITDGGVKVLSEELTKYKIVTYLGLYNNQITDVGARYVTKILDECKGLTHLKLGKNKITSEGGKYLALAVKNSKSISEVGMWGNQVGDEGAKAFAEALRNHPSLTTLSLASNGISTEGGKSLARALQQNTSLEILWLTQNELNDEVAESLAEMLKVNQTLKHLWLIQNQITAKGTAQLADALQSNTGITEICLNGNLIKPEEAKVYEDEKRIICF
Nature of the test: blockers of NOD1 pathway activity – revised, SAR follow-up (AID 2333). It is filed as functional.

The test system of test [33] is HEK293. Description: cells. The conditions noted are these: Homo sapiens.

Structures are written as SMILES. Calls of active or inactive are those of the source. Some results are limits rather than exact numbers.

T2 sequence (Q00975 whole entry): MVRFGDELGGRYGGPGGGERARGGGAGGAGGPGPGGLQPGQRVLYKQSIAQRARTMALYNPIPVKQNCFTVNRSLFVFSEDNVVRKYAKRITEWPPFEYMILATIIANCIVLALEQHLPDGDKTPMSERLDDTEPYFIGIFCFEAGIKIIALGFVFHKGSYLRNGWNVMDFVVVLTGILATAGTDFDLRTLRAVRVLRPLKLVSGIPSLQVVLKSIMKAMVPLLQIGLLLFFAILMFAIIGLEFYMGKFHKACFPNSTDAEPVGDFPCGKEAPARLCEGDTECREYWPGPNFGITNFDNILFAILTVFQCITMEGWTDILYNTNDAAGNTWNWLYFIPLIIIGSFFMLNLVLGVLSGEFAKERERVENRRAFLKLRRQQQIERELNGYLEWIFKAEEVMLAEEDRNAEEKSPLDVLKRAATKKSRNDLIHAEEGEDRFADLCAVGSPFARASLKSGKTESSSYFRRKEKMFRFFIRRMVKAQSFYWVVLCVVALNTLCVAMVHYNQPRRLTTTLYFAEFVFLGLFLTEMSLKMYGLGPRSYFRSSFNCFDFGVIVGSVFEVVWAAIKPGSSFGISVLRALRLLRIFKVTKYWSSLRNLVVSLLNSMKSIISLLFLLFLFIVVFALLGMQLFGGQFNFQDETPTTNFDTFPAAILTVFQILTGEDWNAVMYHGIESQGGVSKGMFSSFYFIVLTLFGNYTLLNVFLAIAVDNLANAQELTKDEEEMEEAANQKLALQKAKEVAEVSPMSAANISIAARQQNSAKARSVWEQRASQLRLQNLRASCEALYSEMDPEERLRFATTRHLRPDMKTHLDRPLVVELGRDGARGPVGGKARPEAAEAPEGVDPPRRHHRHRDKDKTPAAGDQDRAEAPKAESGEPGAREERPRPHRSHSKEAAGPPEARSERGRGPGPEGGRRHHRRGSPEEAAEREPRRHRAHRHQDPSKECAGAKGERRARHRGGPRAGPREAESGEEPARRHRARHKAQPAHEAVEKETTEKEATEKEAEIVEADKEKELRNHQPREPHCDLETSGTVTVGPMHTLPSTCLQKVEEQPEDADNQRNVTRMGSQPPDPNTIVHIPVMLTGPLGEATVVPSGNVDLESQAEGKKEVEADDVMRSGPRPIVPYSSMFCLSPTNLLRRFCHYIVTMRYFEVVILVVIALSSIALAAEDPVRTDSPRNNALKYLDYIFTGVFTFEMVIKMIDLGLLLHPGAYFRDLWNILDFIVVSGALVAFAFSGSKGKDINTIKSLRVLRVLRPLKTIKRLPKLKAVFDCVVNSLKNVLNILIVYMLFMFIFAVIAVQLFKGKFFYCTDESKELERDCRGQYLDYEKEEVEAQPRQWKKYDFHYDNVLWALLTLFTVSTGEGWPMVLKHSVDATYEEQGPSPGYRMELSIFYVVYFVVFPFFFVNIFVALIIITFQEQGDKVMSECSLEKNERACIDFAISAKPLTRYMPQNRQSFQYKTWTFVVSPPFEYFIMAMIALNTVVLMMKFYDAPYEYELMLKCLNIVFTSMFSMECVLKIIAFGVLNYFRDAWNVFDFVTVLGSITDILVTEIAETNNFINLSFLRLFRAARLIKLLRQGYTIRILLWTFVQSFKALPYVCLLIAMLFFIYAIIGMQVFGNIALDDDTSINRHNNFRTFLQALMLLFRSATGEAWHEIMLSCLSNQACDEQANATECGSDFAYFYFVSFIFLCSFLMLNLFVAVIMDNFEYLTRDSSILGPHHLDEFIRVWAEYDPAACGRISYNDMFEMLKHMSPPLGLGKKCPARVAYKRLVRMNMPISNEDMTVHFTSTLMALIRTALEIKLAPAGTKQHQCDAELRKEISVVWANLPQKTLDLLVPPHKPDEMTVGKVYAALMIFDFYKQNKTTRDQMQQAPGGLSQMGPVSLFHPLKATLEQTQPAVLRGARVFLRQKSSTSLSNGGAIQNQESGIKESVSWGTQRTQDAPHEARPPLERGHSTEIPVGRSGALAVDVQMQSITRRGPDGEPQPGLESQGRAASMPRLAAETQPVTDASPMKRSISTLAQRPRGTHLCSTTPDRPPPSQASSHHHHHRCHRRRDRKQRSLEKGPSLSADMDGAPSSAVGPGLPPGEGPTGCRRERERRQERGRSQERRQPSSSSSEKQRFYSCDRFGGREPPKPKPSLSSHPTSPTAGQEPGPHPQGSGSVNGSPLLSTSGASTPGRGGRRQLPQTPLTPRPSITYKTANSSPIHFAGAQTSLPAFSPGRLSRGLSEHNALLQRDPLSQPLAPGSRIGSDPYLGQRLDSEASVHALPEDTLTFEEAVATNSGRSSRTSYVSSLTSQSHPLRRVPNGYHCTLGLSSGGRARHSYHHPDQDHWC
T2 sequence (Q02410 whole entry): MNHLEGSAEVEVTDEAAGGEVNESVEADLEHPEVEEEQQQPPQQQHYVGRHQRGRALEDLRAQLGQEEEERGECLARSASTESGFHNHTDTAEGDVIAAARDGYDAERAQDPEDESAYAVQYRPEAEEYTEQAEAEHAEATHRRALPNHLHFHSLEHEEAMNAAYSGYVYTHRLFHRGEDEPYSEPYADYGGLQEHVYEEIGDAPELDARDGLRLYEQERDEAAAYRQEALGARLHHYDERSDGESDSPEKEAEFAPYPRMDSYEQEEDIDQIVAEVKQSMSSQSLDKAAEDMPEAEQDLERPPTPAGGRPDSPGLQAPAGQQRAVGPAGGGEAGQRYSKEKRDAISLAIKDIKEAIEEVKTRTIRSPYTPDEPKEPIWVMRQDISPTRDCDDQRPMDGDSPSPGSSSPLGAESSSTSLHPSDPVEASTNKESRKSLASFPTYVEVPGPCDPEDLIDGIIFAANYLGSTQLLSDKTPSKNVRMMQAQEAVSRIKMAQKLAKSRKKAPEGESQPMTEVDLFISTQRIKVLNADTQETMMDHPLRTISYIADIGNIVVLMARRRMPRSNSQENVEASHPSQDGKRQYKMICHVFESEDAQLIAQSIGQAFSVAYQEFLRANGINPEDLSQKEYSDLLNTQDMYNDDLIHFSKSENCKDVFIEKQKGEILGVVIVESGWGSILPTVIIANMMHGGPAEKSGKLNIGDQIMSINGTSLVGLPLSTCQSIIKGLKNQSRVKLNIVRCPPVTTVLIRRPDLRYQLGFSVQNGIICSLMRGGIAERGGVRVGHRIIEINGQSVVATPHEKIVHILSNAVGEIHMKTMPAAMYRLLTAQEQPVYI

`Cc1ccc2c(c1)c(/C=C/c1cc[n+](C)cc1)c(C)n2C`: the EC50 (as a rule, the concentration needed to bring the measured effect to its halfway point) was > 160 µM (inactive) in test [1]; 17.3 µM (active) in [2]; 0.59 µM (active) in [4]; 4.42 µM (active) in test [6]; 0.294 µM (active) in test [8]; > 60 µM (not active) in [11]. In addition, the concentration for half-maximal inhibition (IC50) (usually the concentration at which inhibition is half-maximal) was 18 µM (active) in [3]; > 20 µM (inactive) in test [5]; 14.7 µM (inactive) in [7]; > 20 µM (inactive) in [9]; 0.462 µM (active) in test [12]. In addition, in [10], the CC50 is > 40 µM (active). Also, in test [13], the AC50 (usually the concentration giving half of the maximal activity seen) was 3.46 µM (active).

With `OC(COc1ccc2ccccc2c1Br)Cn1ccnc1` (stereo not given), the concentration giving a half-maximal response (EC50) was > 112 µM (not active) in test [14]; > 112 µM (not active) in test [15]; 2.07 µM (active) in test [16]; 0.501 µM (active) in test [8]; > 195 µM (not active) in test [17]; > 60 µM (not active) in test [11]. Further, the concentration for a half-maximal effect (EC50) in test [20] was 2.07 µM (active). Moreover, the CC50 in test [18] is > 20 µM (active). For the same compound, the IC50 in [19] is 14.3 µM (active).

For the compound `O=C1NC(=O)C(=NNC(=O)C2COc3ccccc3O2)C(=O)N1` (stereo not given), the concentration at half-maximal activity (AC50) was 11.7 µM (active) in test [21] and 2.66 µM (active) in [22].

Turning to `O=c1c2ccccc2sn1-c1ccc(S(=O)(=O)N2CCCCC2)cc1`, the IC50 in test [23] is > 50 µM (inactive); in test [24], > 80 µM (inactive); in test [25] it was > 100 µM (inactive); in [26] it was 38.9 µM (inactive); in test [27], 19.4 µM (active).

Take `COc1ccc(CNC(=O)C(C)OC(=O)c2cc(-c3ccco3)nc3ccccc23)cc1` (stereo not given): the results for the concentration for half-maximal inhibition (IC50) in [28], in [29] and in test [30] were 7.68 µM (active), 8.2 µM (active) and 17.5 µM (active), respectively.

As to `CCC(=O)N1c2ccc(S(=O)(=O)N3CCN(c4ccc(Cl)cc4)CC3)cc2CC1C` (stereo not given), the IC50 in test [31] is 0.584 µM (active); in test [32] it was 1.01 µM (active); in [33], 6.8 µM (active).
